Laboratory results: patent publication US5840684A, “Glycopeptide antibiotic derivatives” (Eli Lilly and Company, priority 1995, dated 1998)
≈ marks a conversion by molar mass, not a printed value.

How the values were obtained:
[1] = system: Staphylococcus aureus SA1199B; assay type: cell-based
Description: (§1) The MIC's were determined using a standard broth micro-dilution assay.

[2] = system: Staphylococcus aureus S13E; assay type: cell-based
Description: as §1

[3] = system: Staphylococcus haemolyticus 105; assay: broth micro-dilution MIC; assay type: cell-based
Description: (§2) The formula I compounds have in vitro and in vivo activity against Gram-positive pathogenic bacteria. The MIC's were determined using a standard broth micro-dilution assay.

[4] = system: Staphylococcus epidermidis 270; assay: broth micro-dilution MIC; assay type: cell-based
Description: as §2

[5] = system: Enterococcus gallinarum 245; assay: broth micro-dilution MIC; assay type: cell-based; details: Enterococcus gallinarum 245
Description: as §2

[6] = system: Entercoccus faecium 2041; assay: broth micro-dilution MIC; assay type: cell-based; details: Entercoccus faecium 2041
Description: as §2

[7] = system: Entercoccus faecium 180; assay: broth micro-dilution MIC; assay type: cell-based; details: Entercoccus faecium 180
Description: as §2

[8] = system: Streptococcus pneumoniae P1; assay: broth micro-dilution MIC; assay type: cell-based
Description: as §2

[9] = system: Staphylococcus haemolyticus 415; assay: broth micro-dilution MIC; assay type: cell-based
Description: as §2

[10] = system: Staphylococcus aureus 491; assay: broth micro-dilution MIC; assay type: cell-based
Description: as §1

[11] = system: Entercoccus faecium 276; assay: broth micro-dilution MIC; assay type: cell-based
Description: as §1

[12] = system: Staphylococcus aureus 446; assay: broth micro-dilution MIC; assay type: cell-based
Description: as §1

[13] = system: Staphylococcus aureus 489; assay: broth micro-dilution MIC; assay type: cell-based
Description: as §1

[14] = system: Streptococcus pyogenes C203; assay: broth micro-dilution MIC; assay type: cell-based
Description: as §1

[15] = system: Staphylococcus aureus SA1199; assay: broth micro-dilution MIC; assay type: cell-based
Description: as §1

[16] = system: Staphylococcus aureus X400; assay: broth micro-dilution MIC; assay type: cell-based
Description: as §1

[17] = system: Staphylococcus aureus X778; assay: broth micro-dilution MIC; assay type: cell-based
Description: as §1

[18] = system: Staphylococcus aureus SA1199A; assay: broth micro-dilution MIC; assay type: cell-based
Description: as §1

[19] = system: Entercoccus faecium 180-1; assay: broth micro-dilution MIC; assay type: cell-based
Description: as §1

[20] = system: Staphylococcus aureus 447; assay: broth micro-dilution MIC; assay type: cell-based
Description: as §1

[21] = system: vancomycin-susceptible enterococci; assay: broth micro-dilution, mean geometric MIC; assay type: cell-based, Enterococcus faecium and Enterococcus faecalis; details: enterococci, 24-hour incubation
[22] = system: vancomycin-resistant enterococci; assay: broth micro-dilution, mean geometric MIC; assay type: cell-based, Enterococcus faecium and Enterococcus faecalis; details: enterococci, 24-hour incubation

SMILES | MIC [1] | MIC [2] | MIC [3] | MIC [4] | MIC [5] | MIC [6] | MIC [7] | MIC [8] | MIC [9] | MIC [10] | MIC [11] | MIC [12] | MIC [13] | MIC [14] | MIC [15] | MIC [16] | MIC [17] | MIC [18] | MIC [19] | MIC [20] | further results
CNC(CC(C)C)C(=O)NC1C(=O)NC(CC(N)=O)C(=O)NC2C(=O)NC3C(=O)NC(C(=O)NC(C(=O)O)c4cc(O)cc(O)c4-c4cc3ccc4O)C(OC3CC(C)(N)C(O)C(C)O3)c3ccc(c(Cl)c3)Oc3cc2cc(c3OC2OC(CO)C(O)C(O)C2OC2CC(C)(NCc3ccc(OS(=O)(=O)c4c(C)c(C)c(C)c(C)c4C)cc3)C(O)C(C)O2)Oc2ccc(cc2Cl)C1O (stereo not drawn) [Compound 173] | 4 µg/mL (≈ 2.1 µM) | 4 µg/mL (≈ 2.1 µM) | 2 µg/mL (≈ 1.05 µM) | 2 µg/mL (≈ 1.05 µM) | 4 µg/mL (≈ 2.1 µM) | 0.5 µg/mL (≈ 0.262 µM) | 0.5 µg/mL (≈ 0.262 µM) | ≤ 0.06 µg/mL | 4 µg/mL (≈ 2.1 µM) | 2 µg/mL (≈ 1.05 µM) | 2 µg/mL (≈ 1.05 µM) | 4 µg/mL (≈ 2.1 µM) | 2 µg/mL (≈ 1.05 µM) | ≤ 0.06 µg/mL | 2 µg/mL (≈ 1.05 µM) | 4 µg/mL (≈ 2.1 µM) | 4 µg/mL (≈ 2.1 µM) | 0.5 µg/mL (≈ 0.262 µM) | 0.5 µg/mL (≈ 0.262 µM) | 4 µg/mL (≈ 2.1 µM) | mean geometric MIC, Vancomycin Sensitive Strains [21]: 0.12 µg/mL; mean geometric MIC, Vancomycin Resistant Strains [22]: 2.0 µg/mL
CNC(CC(C)C)C(=O)NC1C(=O)NC(CC(N)=O)C(=O)NC2C(=O)NC3C(=O)NC(C(=O)NC(C(=O)O)c4cc(O)cc(O)c4-c4cc3ccc4O)C(OC3CC(C)(N)C(O)C(C)O3)c3ccc(c(Cl)c3)Oc3cc2cc(c3OC2OC(CO)C(O)C(O)C2OC2CC(C)(NCc3ccc(S(=O)(=O)N4CCCC4)cc3)C(O)C(C)O2)Oc2ccc(cc2Cl)C1O (stereo not drawn) [Compound 174] | 0.125 µg/mL (≈ 0.0688 µM) | ≤ 0.06 µg/mL | 4 µg/mL (≈ 2.2 µM) | 2 µg/mL (≈ 1.1 µM) | 16 µg/mL (≈ 8.81 µM) | ≤ 0.06 µg/mL | 2 µg/mL (≈ 1.1 µM) | ≤ 0.06 µg/mL | 16 µg/mL (≈ 8.81 µM) | 1 µg/mL (≈ 0.551 µM) | ≤ 0.06 µg/mL | 0.5 µg/mL (≈ 0.275 µM) | ≤ 0.06 µg/mL | ≤ 0.06 µg/mL | ≤ 0.06 µg/mL | ≤ 0.06 µg/mL | ≤ 0.06 µg/mL | ≤ 0.06 µg/mL | ≤ 0.06 µg/mL | 4 µg/mL (≈ 2.2 µM) | mean geometric MIC, Vancomycin Sensitive Strains [21]: 0.76 µg/mL; mean geometric MIC, Vancomycin Resistant Strains [22]: 19 µg/mL
CCCCCCCCCCC#CCNC1(C)CC(OC2C(Oc3c4cc5cc3Oc3ccc(cc3Cl)C(OC3CC(C)(N)C(O)C(C)O3)C3NC(=O)C(NC(=O)C5NC(=O)C(CC(N)=O)NC(=O)C(NC(=O)C(CC(C)C)NC)C(O)c5ccc(c(Cl)c5)O4)c4ccc(O)c(c4)-c4c(O)cc(O)cc4C(C(=O)O)NC3=O)OC(CO)C(O)C2O)OC(C)C1O (stereo not drawn) [Compound 191] | 2 µg/mL (≈ 1.13 µM) | 2 µg/mL (≈ 1.13 µM) | 2 µg/mL (≈ 1.13 µM) | 2 µg/mL (≈ 1.13 µM) | 8 µg/mL (≈ 4.52 µM) | 1 µg/mL (≈ 0.565 µM) | 4 µg/mL (≈ 2.26 µM) | ≤ 0.06 µg/mL | 8 µg/mL (≈ 4.52 µM) | 1 µg/mL (≈ 0.565 µM) | 4 µg/mL (≈ 2.26 µM) | 2 µg/mL (≈ 1.13 µM) | 2 µg/mL (≈ 1.13 µM) | ≤ 0.06 µg/mL | 2 µg/mL (≈ 1.13 µM) | 1 µg/mL (≈ 0.565 µM) | 2 µg/mL (≈ 1.13 µM) | 0.5 µg/mL (≈ 0.282 µM) | 0.25 µg/mL (≈ 0.141 µM) | 2 µg/mL (≈ 1.13 µM) | mean geometric MIC, Vancomycin Sensitive Strains [21]: 0.57 µg/mL; mean geometric MIC, Vancomycin Resistant Strains [22]: 6.7 µg/mL
CNC(CC(C)C)C(=O)NC1C(=O)NC(CC(N)=O)C(=O)NC2C(=O)NC3C(=O)NC(C(=O)NC(C(=O)O)c4cc(O)cc(O)c4-c4cc3ccc4O)C(OC3CC(C)(N)C(O)C(C)O3)c3ccc(c(Cl)c3)Oc3cc2cc(c3OC2OC(CO)C(O)C(O)C2OC2CC(C)(NCc3ccc(N=Nc4ccccc4)cc3)C(O)C(C)O2)Oc2ccc(cc2Cl)C1O (stereo not drawn) [Compound 210] | 0.125 µg/mL (≈ 0.07 µM) | ≤ 0.06 µg/mL | 1 µg/mL (≈ 0.56 µM) | 0.25 µg/mL (≈ 0.14 µM) | 1 µg/mL (≈ 0.56 µM) | ≤ 0.06 µg/mL | ≤ 0.06 µg/mL | ≤ 0.06 µg/mL | 1 µg/mL (≈ 0.56 µM) | ≤ 0.06 µg/mL | ≤ 0.06 µg/mL | 2 µg/mL (≈ 1.12 µM) | 1 µg/mL (≈ 0.56 µM) | ≤ 0.06 µg/mL | 0.5 µg/mL (≈ 0.28 µM) | ≤ 0.06 µg/mL | 1 µg/mL (≈ 0.56 µM) | ≤ 0.06 µg/mL | ≤ 0.06 µg/mL | 0.5 µg/mL (≈ 0.28 µM) | mean geometric MIC, Vancomycin Sensitive Strains [21]: 0.041 µg/mL; mean geometric MIC, Vancomycin Resistant Strains [22]: 0.84 µg/mL
CNC(CC(C)C)C(=O)NC1C(=O)NC(CC(N)=O)C(=O)NC2C(=O)NC3C(=O)NC(C(=O)NC(C(=O)O)c4cc(O)cc(O)c4-c4cc3ccc4O)C(OC3CC(C)(N)C(O)C(C)O3)c3ccc(c(Cl)c3)Oc3cc2cc(c3OC2OC(CO)C(O)C(O)C2OC2CC(C)(NCc3ccc4c(c3)CCc3ccccc3-4)C(O)C(C)O2)Oc2ccc(cc2Cl)C1O (stereo not drawn) [Compound 220] | 0.5 µg/mL (≈ 0.28 µM) | 0.5 µg/mL (≈ 0.28 µM) | 0.5 µg/mL (≈ 0.28 µM) | 1 µg/mL (≈ 0.56 µM) | 0.5 µg/mL (≈ 0.28 µM) | ≤ 0.06 µg/mL | 0.125 µg/mL (≈ 0.07 µM) | ≤ 0.06 µg/mL | 0.5 µg/mL (≈ 0.28 µM) | ≤ 0.06 µg/mL | 0.125 µg/mL (≈ 0.07 µM) | 1 µg/mL (≈ 0.56 µM) | 0.5 µg/mL (≈ 0.28 µM) | ≤ 0.06 µg/mL | 1 µg/mL (≈ 0.56 µM) | 0.5 µg/mL (≈ 0.28 µM) | 0.5 µg/mL (≈ 0.28 µM) | ≤ 0.06 µg/mL | ≤ 0.06 µg/mL | 0.5 µg/mL (≈ 0.28 µM) | mean geometric MIC, Vancomycin Sensitive Strains [21]: 0.05 µg/mL; mean geometric MIC, Vancomycin Resistant Strains [22]: 0.71 µg/mL
CCCCCC#Cc1ccc(CNC2(C)CC(OC3C(Oc4c5cc6cc4Oc4ccc(cc4Cl)C(OC4CC(C)(N)C(O)C(C)O4)C4NC(=O)C(NC(=O)C6NC(=O)C(CC(N)=O)NC(=O)C(NC(=O)C(CC(C)C)NC)C(O)c6ccc(c(Cl)c6)O5)c5ccc(O)c(c5)-c5c(O)cc(O)cc5C(C(=O)O)NC4=O)OC(CO)C(O)C3O)OC(C)C2O)cc1 (stereo not drawn) [Compound 227] | 4 µg/mL (≈ 2.25 µM) | 4 µg/mL (≈ 2.25 µM) | 2 µg/mL (≈ 1.13 µM) | 2 µg/mL (≈ 1.13 µM) | 4 µg/mL (≈ 2.25 µM) | 0.25 µg/mL (≈ 0.141 µM) | 0.25 µg/mL (≈ 0.141 µM) | ≤ 0.06 µg/mL | 4 µg/mL (≈ 2.25 µM) | 2 µg/mL (≈ 1.13 µM) | 0.5 µg/mL (≈ 0.281 µM) | 2 µg/mL (≈ 1.13 µM) | 2 µg/mL (≈ 1.13 µM) | ≤ 0.06 µg/mL | 4 µg/mL (≈ 2.25 µM) | 1 µg/mL (≈ 0.563 µM) | 4 µg/mL (≈ 2.25 µM) | 0.6 µg/mL (≈ 0.338 µM) | ≤ 0.06 µg/mL | 2 µg/mL (≈ 1.13 µM) | mean geometric MIC, Vancomycin Sensitive Strains [21]: 0.11 µg/mL; mean geometric MIC, Vancomycin Resistant Strains [22]: 0.71 µg/mL
